# Legend:
# rabbits = assay: Chronic toxicity, rabbits; type: in vivo, rabbit; conditions: hypodermal, 2 months
# From the text: (§1) The chronic toxicity of the preparation was studied on three species of animals (rats, dogs, rabbits). In chronic tests on the above-mentioned animals the effect of a long-time hypodermal administration of the preparation according to the present invention on the general state and mass of animals, hemogram, cardio-vascular system, breathing central nervous system, functional state of kidneys, liver, thyroid gland was studied. […] The doses of the preparation employed in the experiments surpassed the required dose for a human being (per kilogram of bodymass) by 5-10 times.
# [1] = test system: learning ability of rats preliminarily sorted out for poor learning ability; assay: Active avoidance learning in a shuttle chamber, rats sorted out for poor learning ability; type: in vivo, rat; conditions: poorly learning rats
# Solubility = type: physicochemical
# patients [2] = assay: Clinical study on patients with memory disorders, compared to pyracetam; type: in vivo, human
# From the text: The preparation according to the present invention was studied in clinics on 130 patients.
# As regards diagnosis and sex the patients were distributed as follows:
# skull-brain traumata with memory disturbance: 75 patients (52 men and 23 women)
# Alzheimer's disease: 15 patients (3 men and 12 women)
# Pick's disease: 5 patients (5 men)
# Senile dementia: 15 patients (4 men and 11 women)
# Vascular dementia (cerabral atero-sclerosis, hypertonic disease): 20 patients (7 men and 13 women)
# In the group of patients with skull-brain trauma the patient's age varied from 17 to 60 years, in the other patients--from 52 to 75 years.
# In addition to clinico-psychopathological methods of investigation, all the patients were subjected to neuropsychological studies during which specific tasks were offered them to solve. In doing so, the response was assessed against a 4-points scale: 3--maximally pronounced disorder, full or substantially full incapability to deal with the task set; 2--a medium degree of manifestation of the deficiency, solving the task with the experimentator's assistance; 1--minor errors, independent correction of mistakes; 0--lack of disturbances.
# The treatment course duration is 30-60 days. In the case of an acute skull-brain trauma (65 patients) the treatment started 15-20 days after the moment of trauma and lasted for 20-30 days.
# It is known that the function of memory has a complex brain organization and different zones of brains take part in its regulation. During the studies a multi-faceted assessment of the memory function was carried out; there were assessed: (1) mnestic component of the environmental orientation of a patient; (2) involuntary memory for current events; (3) intentional exo-experimental memory; (4) volume and soundness of audio-speaking memory; (5) volume and soundness of visual memory; (6) operative memory; (7) memory for knowledge acquired before the disease.
# patients [3] = assay: Tolerability and side effects in patients; type: in vivo, human
# [4] = Allergenic activity tests
# Procedure: Allergenic activity tests were also carried out for the preparation according to the present invention.
# rats = assay: Chronic toxicity, rats; type: in vivo, rat; conditions: hypodermal, 3 months
# From the text: as §1
# [5] = test system: learning ability of rats in a shuttle chamber; assay: Active avoidance learning in a shuttle chamber, rats; type: in vivo, rat
# [6] = rats, hypodermally 1 mg/kg 14 days
# [7] = rats, hypodermally 5 mg/kg 14 days
# [8] = rats, hypodermally 5 mg/kg after teaching
smiles,measurement,setting,value
"Cl.Nc1c2c(nc3c1CCC3)CCCC2.O [preparation of the invention, 9-amino-2,3,5,6,7,8-hexahydro-1H-cyclopenta(b)quinoline monohydrate hydrochloride]",chronic toxicity,rabbits,no toxic effect
same,% of knowledge retention,[1]; hypodermally 5 mg/kg,64.3%
same,"Number of combinations till appearance of ""learning criterion"", I teaching",[1]; hypodermally 5 mg/kg,21 ± 2.7
same,"Number of combinations till appearance of ""learning criterion"", II-checking of retention of knowledge",[1]; hypodermally 5 mg/kg,7.5 ± 0.9
same,Number of untaught animals in the group,[1]; hypodermally 5 mg/kg,3/20
same,% of knowledge retention,[1]; hypodermally I mg/kg,57.5%
same,"Number of combinations till appearance of ""learning criterion"", I teaching",[1]; hypodermally I mg/kg,24 ± 2.5
same,"Number of combinations till appearance of ""learning criterion"", II-checking of retention of knowledge",[1]; hypodermally I mg/kg,10.2 ± 1.5
same,Number of untaught animals in the group,[1]; hypodermally I mg/kg,6/20
same,solubility in 95% ethanol,Solubility; 95% ethanol,less soluble in a 95% ethanol
same,solubility in acetone,Solubility; acetone,substantially insoluble
same,solubility in chloroform,Solubility; chloroform,substantially insoluble
same,solubility in diluted solutions of acids,Solubility; diluted solutions of acids,readily soluble in diluted solutions of acids
same,solubility in ether,Solubility; ether,substantially insoluble
same,solubility in water,Solubility; water,well soluble in water
same,therapeutic effect,patients [2]; Alzheimer's and Pick's diseases,An essential amelioration
same,recovery of psychic functions,patients [2]; acute skull-brain trauma,faster and more complete recovery of psychic functions
same,"therapeutic effect, memory",patients [2]; consequences of a vascular injury of brains,an improvement of memory was noted along with a higher working capacity
same,effect on memory parameters,"patients [2]; environmental orientation, past knowledge, involuntary, voluntary exo-experimental and operative memory",more complete and faster recovering effect
same,effect on the functional symmetry of the brain and activity of the dominating hemisphere,patients [2]; experimental and clinical studies,enhanced activity of the dominating hemisphere
same,character of recovery (in words),patients [2]; patients,constructive and environmental praxis recovered most efficiently along with reading ability and memory
same,recovery of visual versus audio memory (in words),patients [2]; patients,visual memory recovered faster than the audio memory
same,restoration of psychic functions as compared to pyracetam,"patients [2]; patients, 5 to 30 mg a day subcutaneous, 30-60 days",faster and more complete restoration of psychic functions
same,"side effects, rare cases",patients [3]; eliminated by lowering dose or temporary suspension,reduction or elevation of arterial pressure and bradycardia
same,tolerability,patients [3]; patients,well-bearable by patients
same,side effects,patients [3]; signs of stimulation of m-cholinergic systems,"nausea, diarrhea, less frequently--vomition"
same,allergenic effect,[4],no allergenic effect
same,chronic toxicity,rats,no toxic effect
same,learning capacity (in words),"[5]; rats, 1, 5 and 10 mg/kg",stimulate the learning capacity of rats
same,activity on learning versus comparison preparations (in words),"[5]; rats, Tables 1 and 2","substantially more active than 4-aminopyridine, physostigmine, pyracetam and lysyl-vasopressin"
same,"Number of combinations to reach the ""learning criterion"" in II teaching series (after 7 days)","[5]; rats, hypodermally 1 mg/kg",4.2 + 0.8
same,"Number of combinations to reach the ""learning criterion"" in the I teaching series","[5]; rats, hypodermally 1 mg/kg",14.2 + 1.2
same,Number of non-taught animals in the group,"[5]; rats, hypodermally 1 mg/kg",3/20
same,Percentage knowledge retention,"[5]; rats, hypodermally 1 mg/kg",70.4%
same,"Number of combinations to reach the ""learning criterion"" in II teaching series (after 7 days)",[5]; [6],3.9 ± 0.8
same,"Number of combinations to reach the ""learning criterion"" in the I teaching series",[5]; [6],14.7 ± 1.9
same,Number of non-taught animals in the group,[5]; [6],2/20
same,Percentage knowledge retention,[5]; [6],72.7%
same,"Number of combinations to reach the ""learning criterion"" in II teaching series (after 7 days)","[5]; rats, hypodermally 5 mg/kg",2.6 + 0.3
same,"Number of combinations to reach the ""learning criterion"" in the I teaching series","[5]; rats, hypodermally 5 mg/kg",11.5 + 0.9
same,Number of non-taught animals in the group,"[5]; rats, hypodermally 5 mg/kg",1/20
same,Percentage knowledge retention,"[5]; rats, hypodermally 5 mg/kg",77.4%
same,"Number of combinations to reach the ""learning criterion"" in II teaching series (after 7 days)",[5]; [7],4.4 ± 0.5
same,"Number of combinations to reach the ""learning criterion"" in the I teaching series",[5]; [7],14.8 ± 2.0
same,Number of non-taught animals in the group,[5]; [7],2/20
same,Percentage knowledge retention,[5]; [7],69.3%
same,"Number of combinations to reach the ""learning criterion"" in II teaching series (after 7 days)",[5]; [8],7.2 ± 0.8
same,"Number of combinations to reach the ""learning criterion"" in the I teaching series",[5]; [8],19.0 ± 1.2
same,Number of non-taught animals in the group,[5]; [8],1/20
same,Percentage knowledge retention,[5]; [8],60%
same,"Number of combinations to reach the ""learning criterion"" in II teaching series (after 7 days)","[5]; rats, hypodermally 10 mg/kg",3.0 + 0.5
same,"Number of combinations to reach the ""learning criterion"" in the I teaching series","[5]; rats, hypodermally 10 mg/kg",12.9 + 0.8
same,Number of non-taught animals in the group,"[5]; rats, hypodermally 10 mg/kg",0/15
same,Percentage knowledge retention,"[5]; rats, hypodermally 10 mg/kg",76.7%
same,"Number of combinations to reach the ""learning criterion"" in II teaching series (after 7 days)","[5]; rats, per os 5 mg/kg",6.0 + 0.5
same,"Number of combinations to reach the ""learning criterion"" in the I teaching series","[5]; rats, per os 5 mg/kg",12.8 + 1.7
same,Number of non-taught animals in the group,"[5]; rats, per os 5 mg/kg",2/20
same,Percentage knowledge retention,"[5]; rats, per os 5 mg/kg",60%
same,stimulating effect as compared to single-time administration (in words),"[5]; rats, two-weeks of administration",stimulating effect is also enhanced

# Source: patent publication US4735953A, “Pharmaceutical preparation for learning stimulation and memory improvement” (priority 1986, dated 1988)
